Assays:
[1] = system: Humanized Rat Basophil Leukaemia (RBL) cells (clone RBL-703/21); assay: human RBL assay: β-hexosaminidase release of humanized RBL cells loaded with patients' serum IgE; assay type: cell-based; conditions: for biological activity (% of patients): percentage of 78 patients' sera triggering β-hexosaminidase release, milk components 0.3 μg/ml; for extent of degranulation relative to the activity of the complete protein: synthetic alphaS1-casein-derived peptides
Text: A scientifically approved model to test biological reactivity of molecules is induction of histamine release from human basophil granulocytes (Purohit 2005). For this purpose a rat basophil leukaemia cell line expressing the α-chain of the human FcεRI receptor (Hoffmann et al., Int Arch Allergy Immunol, Vol 126(4), p. 277-285) was used. Different milk components (n=33) including whole milk extracts from different species, milk fractions, purified natural and recombinant cow's milk proteins, and recombinant protein fragments were tested. The percentages of 78 patients whose serum IgE antibodies trigger β-hexosaminidase release of the humanized RBL cells in response to the individual milk components were determined (FIG. 3).
(§1) Sera from 78 patients who were selected according to a positive case history, positive skin-prick reactions and determination of specific IgE to cow's milk extract using the CAP-FEIA System (Phadia, Uppsala, Sweden) were used. Sera were obtained from five adults and 73 children (30 female and 43 male) from Austria, Germany, Italy, Spain and France.
Humanized Rat Basophil Leukaemia (RBL) cells (clone RBL-703/21) were incubated in microtiter plates overnight at 37° C. (7% CO2, 95% humidity) with 50 μl human sera, diluted 1:10. Afterwards cells were washed and exposed to milk components, diluted to 0.3 μg/ml protein in Tyrodes buffer containing 50% D2O and 0.1% BSA/HAS for 1 hour at 37° C. (7% CO2, 95% humidity). Spontaneous release of the cells was also evaluated. Finally, the cell supernatants were incubated with 50 μl assay solution (0.1 M citric acid or sodium citrate, pH 4.5, 160 μM 4-methyl umbelliferyl-N-acetyl-β-D-glucosaminide) in new microtiter plates at 37° C. (7% CO2, 95% humidity) for 1 h. The reactions were stopped by addition of 100 μl glycine buffer per well and the fluorescence measured at λex: 360 and λem: 465 using a fluorescence microplate reader. The specific hexosaminidase release of each sample was calculated using the formula: [(FlS−FlSp):(FlZ−FlSp)]×100 (where […] is the fluorescence of the sample; FlSp is the fluorescence of the spontaneous release and FlZ is the fluorescence of the total release).

[2] = system: serum IgE of cow's milk allergic patients; assay: IgE binding capacity (IgE reactivity) of milk components with patients' sera; design: species or system human; conditions: sera of cow's milk allergic patients (n=78)
Text: as §1

patients' serum IgE = assay: microarray IgE reactivity testing of ALA-derived peptides; assay type: binding, human; conditions: sera from the 36 patients with IgE reactivity to rALA
Method: IgE reactivity testing to ALA-derived peptides:IgE reactivities of the ALA-derived peptides were determined by microarray analysis as described (Schulmeister et al., J Immunol. 182(11):7019-29). In brief, milk components were spotted onto a capillary-flow membrane on an ordinary microscope glass slide and incubated with 25 μl of patients' sera. Bound IgE antibodies were detected with a fluorescence-conjugated anti-IgE antibody at a wavelength of 670 nm. The cut off level was set for each patient as the double value of the individual value gained with human serum albumin.
In order to identify IgE-reactive epitopes of ALA, we synthesized 8 peptides spanning the ALA sequence (Table 2). […] The IgE reactivity of the 8 overlapping peptides was evaluated by microarray analysis using sera from the 36 patients showing IgE reactivity to rALA. […] In total 19 of the 36 patients with IgE reactivity to rALA reacted at least with one ALA-derived synthetic peptide.

[3] = system: IgE of sera from cow's milk allergic patients; assay: dot blot IgE reactivity of nitrocellulose-dotted milk components; assay type: binding, human; conditions: 1 μg dotted; sera from three cow's milk allergic patients, 1:20
Text: In FIG. 6 a Mascot search and the identification of beta-casein-derived peptides in hydrolyzed cow's milk is depicted. At the top beta-casein, the only identified milk allergen in mass spectrometry, is mentioned with its molecular mass and calculated pI. Below the search parameters and the obtained sequence coverage of beta-casein are given. […] The beta-casein allergen was identified with peptide matches: HQPHQPLPPT (calculated mass of 1.25 kDa, corresponding to aa 160-170 of beta-casein), VYPFPGPIPN (calculated mass of 1.19 kDa, corresponding to aa 74-84 of beta-casein), SSSEE (calculated mass of 0.65 kDa, corresponding to aa 31-36 of beta-casein), and PVVVPP (calculated mass of 0.87 kDa, corresponding to aa 96-103 of beta-casein). In FIG. 7 IgE reactivity testing of these peptides is shown (Table 1: cas b-1, 2, 3 and 4; FIG. 7). […] IgE reactivity of nitrocellulose-dotted cow's milk (CM), recombinant beta-casein (rBC), synthetic beta-casein-derived peptides (cas b-1, cas b-2, cas b-3, cas b-4), and recombinant alphaS1-casein (rAS1C) were analysed by dot blot assay. Nitrocellulose-bound milk components were incubated with the sera from three cow's milk allergic patients (lanes 1, 2 and 3) and a non-allergic individual (lane C). Bound IgE antibodies were detected with ^125I-labeled anti-IgE antibodies. […] Furthermore, they are different from the published major IgE binding regions of beta-casein (aa 1-16, aa 83-92, aa 135-144; Chatchatee 2001). None of the other IgE-reactive milk allergens and allergen fragments obtained by screening of the cDNA expression library (FIG. 1) were detected in the hydrolyzed milk sample which therefore could be identified as a non-allergenic preparation.
Hydrolyzed milk formula was analyzed by reversed-phase HPLC using a nano liquid chromatography system (Ultimate, LC Packings Dionex, The Netherlands) connected to the nanospray interface of a HCT-Ultra mass spectrometer (Bruker Daltonik, Germany). The obtained mass spectra were searched against the SwissProt protein databank using MASCOT (Matrix Science, London, United Kingdom) software search algorithms. For dot blot analysis 1 μg of protein was dotted onto nitrocellulose, and incubated with sera from milk allergic patients diluted 1:20 in PBST (PBS, 0.5% v/v Tween 20). Bound IgE antibodies were detected with 1:15 diluted ^125I-labelled anti-human IgE antibodies (IBL, Germany).

Substance	biological activity (% of patients) [1]	IgE binding (% of patients) [2]	IgE binding (% of patients) (patients' serum IgE)	also measured
CLKKYKVPQLEIVPNSAEERLHSMKEGIHIAQQKE [Cas 4, synthetic peptide of αS1-casein]	3.8 % of patients	35.9 % of patients		extent of degranulation relative to the activity of the complete protein [1]: about a tenth
CPMIGVNQELAYFYPELFRQFYQLDAYPSGAWYYV [Cas 5, synthetic peptide of αS1-casein]	5.1 % of patients	41.0 % of patients		extent of degranulation relative to the activity of the complete protein [1]: about a tenth
EQLTKCEVFRELKDLKGYG [Lac1, synthetic ALA-derived peptide]			30.6 % of patients	
FGKEKVNELSKDIGSESTEDQAMEDIKQMEAES [Cas 2, synthetic peptide of αS1-casein]	3.8 % of patients	15.4 % of patients		extent of degranulation relative to the activity of the complete protein [1]: one fourth
HQPHQPLPPTV [cas b-1, synthetic peptide of β-casein]				IgE reactivity (dot blot) [3]: not IgE-reactive
ISCDKFLDDDLTDDIMCVKK [Lac6, synthetic ALA-derived peptide]			2.8 % of patients	
ISSSEEIVPNSVEQKHIQKEDVPSERYLGYEQLLRC [Cas 3, synthetic peptide of αS1-casein]	2.6 % of patients	46.2 % of patients		extent of degranulation relative to the activity of the complete protein [1]: about a tenth
LAHKALCSEKLDQWLCEKL [Lac8, synthetic ALA-derived peptide]			11.1 % of patients	
LKGYGGVSLPEWVCTTFHTS [Lac2, synthetic ALA-derived peptide]			33.3 % of patients	
LSSSEE [cas b-3, synthetic peptide of β-casein]				IgE reactivity (dot blot) [3]: not IgE-reactive
MCVKKILDKVGINYWLAHKA [Lac7, synthetic ALA-derived peptide]			2.8 % of patients	
NDSTEYGLFQINNK1WCKDD (NDSTEYGLFQINNKIWCKDD) [Lac4, synthetic ALA-derived peptide]			5.6 % of patients	
PLGTQYTDAPSFSDIPNPIGSENSEKTTMPLWC [Cas 6, synthetic peptide of αS1-casein]	7.7 % of patients	37.2 % of patients		extent of degranulation relative to the activity of the complete protein [1]: one fourth
PVVVPPFL [cas b-4, synthetic peptide of β-casein]				IgE reactivity (dot blot) [3]: not IgE-reactive
RPKHPIKHQGLPQEVLNENLLRFFVAPFPEVC [Cas 1, synthetic peptide of αS1-casein]	6.4 % of patients	43.6 % of patients		
TFHTSGYDTQA1YQNNDSTE (TFHTSGYDTQAIYQNNDSTE) [Lac3, synthetic ALA-derived peptide]			0 % of patients	
VYPFPGPIIPNS [cas b-2, synthetic peptide of β-casein]				IgE reactivity (dot blot) [3]: not IgE-reactive
WCKDDQNPHSSNICNISCDK [Lac5, synthetic ALA-derived peptide]			2.8 % of patients	
alpha-casein [AC]	25.6 % of patients	50.0 % of patients		
alpha-lactalbumin [ALA]	11.5 % of patients	65.4 % of patients		
beta-lactoglobulin variant B [BLGB]	19.2 % of patients	51.3 % of patients		
bovine serum albumin [BSA]	2.1 % of patients	6.4 % of patients		
kappa-casein [KC]	25.6 % of patients	30.8 % of patients		
recombinant alpha-lactalbumin [rALA]	21.8 % of patients	25.6 % of patients	100.0 % of patients	release compared with natural counterpart ([1]; recombinant versus natural alpha-lactalbumin): much higher release than its natural counterpart
recombinant beta-lactoglobulin [rBLG]	12.8 % of patients	23.1 % of patients		
recombinant kappa-casein [rKC]	6.4 % of patients	21.8 % of patients		
sheep serum albumin [SSA]	2.6 % of patients	1.3 % of patients		

Source: patent US20100143262A1, “Method for Identifying Allergenic Proteins And Peptides” (priority 2008, published 2010)
